Assay results published in US20240174618A1, “SUBSTITUTED (2-HETEROARYLOXYPHENYL)SULFONATES, SALTS THEREOF AND THEIR USE AS HERBICIDAL AGENTS” (Bayer Aktiengesellschaft, priority 2021, published 2024).

Legend:
Type in all cases: in vivo
[1] = system: Digitaria sanguinalis (DIGSA); test: A. Herbicidal pre-emergence efficacy, DIGSA; conditions: scored visually after about 3 weeks vs untreated controls
Method in brief: (§1)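 Applied before emergence onto covering soil at rates of 1280 g/ha or less, using 600 L/ha spray water with 0.5% additive. Scoring: visual % efficacy after ~3 weeks, greenhouse.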

Poa annua (POAAN) [2] = test: A. Herbicidal pre-emergence efficacy, POAAN
Method in brief: as §1

Setaria viridis (SETVI) = test: A. Herbicidal pre-emergence efficacy, SETVI
Method in brief: as §1

Stellaria media (STEME) [3] = test: A. Herbicidal pre-emergence efficacy, STEME
Method in brief: as §1

[4] = system: Amaranthus retroflexus (AMARE); test: A. Herbicidal pre-emergence efficacy, AMARE
Method in brief: as §1

[5] = system: Abutilon theophrasti (ABUTH); test: B. Herbicidal post-emergence efficacy, ABUTH; conditions: rated visually after about 3 weeks
Method in brief: (§2)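 Post-emergence greenhouse test: one-leaf-stage plants, compound (WP/EC, +0.5% additive, 600 L/ha water, ≤1280 g/ha) applied to green parts; % efficacy scored visually vs untreated after ~3 wk; 100% = plants died.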

[6] = system: Echinochloa crus-galli (ECHCG); test: B. Herbicidal post-emergence efficacy, ECHCG; conditions: rated visually after about 3 weeks
Method in brief: as §2

Kochia scoparia (KCHSC) = test: B. Herbicidal post-emergence efficacy, KCHSC; conditions: 1280 g/ha
Method in brief: as §2

Lolium rigidum (LOLRI) = test: B. Herbicidal post-emergence efficacy, LOLRI; conditions: 1280 g/ha
Method: Seeds of mono- and dicotyledonous weed plants were placed in plastic pots in sandy loam soil (doubly sown with in each case one species of mono- or dicotyledonous weed plants per pot), covered with soil and cultivated in a greenhouse under controlled growth conditions. 2 to 3 weeks after sowing, the test plants were treated at the one-leaf stage. The compounds of the invention, formulated in the form of wettable powders (WP) or as emulsion concentrates (EC), were applied onto the green parts of the plants as aqueous suspension or emulsion with addition of 0.5% additive at a water application rate of 600 liters per hectare (converted). After the test plants had been kept in the greenhouse under optimum growth conditions for about 3 weeks, the activity of the preparations was rated visually in comparison to untreated controls.
For example, • 100% efficacy=plants have died, • 0% efficacy=like untreated control plants
Tables B1a to B12c below show the effects of selected inventive compounds of the general formula (I) according to table 1 on various harmful plants at an application rate corresponding to 1280 g/ha or less, which were obtained by the experimental procedure mentioned above.

Poa annua (POAAN) [7] = test: B. Herbicidal post-emergence efficacy, POAAN
Method in brief: as §2

Stellaria media (STEME) [8] = test: B. Herbicidal post-emergence efficacy, STEME
Method in brief: as §2

Veronica persica (VERPE) = test: B. Herbicidal post-emergence efficacy, VERPE
Method in brief: as §2

[9] = system: Amaranthus retroflexus (AMARE); test: B. Herbicidal post-emergence efficacy, AMARE
Method in brief: as §2

Cc1cccc(Oc2ncc(Cl)cn2)c1OS(=O)(=O)CC1CC1(Cl)Cl (centres unmarked) [Example I-76]
Pre-emergence efficacy against DIGSA ([1]; 320 g/ha): 90% | Pre-emergence efficacy against DIGSA ([1]; 1280 g/ha): 90% | Pre-emergence efficacy against POAAN (Poa annua (POAAN) [2]; dosage 320 g/ha): 90% | Pre-emergence efficacy against POAAN (Poa annua (POAAN) [2]; dosage 1280 g/ha): 90% | Pre-emergence efficacy against SETVI (Setaria viridis (SETVI); dosage 320 g/ha): 100% | Pre-emergence efficacy against SETVI (Setaria viridis (SETVI); dosage 1280 g/ha): 100% | Pre-emergence efficacy against STEME (Stellaria media (STEME) [3]; dosage 80 g/ha): 90% | Pre-emergence efficacy against STEME (Stellaria media (STEME) [3]; dosage 320 g/ha): 90% | Pre-emergence efficacy against STEME (Stellaria media (STEME) [3]; dosage 1280 g/ha): 100% | Pre-emergence efficacy against AMARE in % ([4]; 320 g/ha): 90% | Pre-emergence efficacy against AMARE in % ([4]; 1280 g/ha): 100% | Post-emergence efficacy against ABUTH in % ([5]; 80 g/ha): 90% | Post-emergence efficacy against ABUTH in % ([5]; 320 g/ha): 90% | Post-emergence efficacy against ABUTH in % ([5]; 1280 g/ha): 100% | Post-emergence efficacy against ECHCG in % ([6]; 320 g/ha): 90% | Post-emergence efficacy against ECHCG in % ([6]; 1280 g/ha): 100% | Post-emergence efficacy against KCHSC (Kochia scoparia (KCHSC)): 90% | Post-emergence efficacy against LOLRI (Lolium rigidum (LOLRI)): 90% | Post-emergence efficacy against POAAN (Poa annua (POAAN) [7]; 320 g/ha): 90% | Post-emergence efficacy against POAAN (Poa annua (POAAN) [7]; 1280 g/ha): 100% | Post-emergence efficacy against STEME (Stellaria media (STEME) [8]; 80 g/ha): 90% | Post-emergence efficacy against STEME (Stellaria media (STEME) [8]; 320 g/ha): 100% | Post-emergence efficacy against STEME (Stellaria media (STEME) [8]; 1280 g/ha): 100% | Post-emergence efficacy against VERPE (Veronica persica (VERPE); 80 g/ha): 90% | Post-emergence efficacy against VERPE (Veronica persica (VERPE); 320 g/ha): 100% | Post-emergence efficacy against VERPE (Veronica persica (VERPE); 1280 g/ha): 100% | Post-emergence efficacy against AMARE ([9]; 80 g/ha): 90% | Post-emergence efficacy against AMARE ([9]; 320 g/ha): 100% | Post-emergence efficacy against AMARE ([9]; 1280 g/ha): 100%
